Measured values published in patent US7892350B2, “Sacrificial agents for fly ash concrete” (Boral Material Technologies Inc., priority 2003, dated 2011).
Like-named read-outs stand apart in the source and are kept apart here.

Assay: Second sacrificial agent testing protocol: paste air measurements with DDBS (0.0125 wt %) and rating; for Overall performance rating (second protocol rating): key: 0: Fail; 1: Poor; 2: Good; 3: Preferred; 4: Most preferred; for SA Rating (0-4): key: 0: Fail; 1: Poor; 2: Good; 3: Preferred; 4: Most preferred
Description: The second sacrificial agents evaluation protocol has been designed to assess the relative potential value of candidate sacrificial agents with a maximum of five paste air measurements.
The first two measurements (of entrained air) are carried out with a standard AEA in a portland cement paste and in a FA:cement paste; these two tests provide reference values which can be used for the relative assessment of a series of sacrificial agents. The other three paste air measurements pertain to the properties and effectiveness of the sacrificial agents.
1. Measurement of the air entrained by a standard air-entraining admixture in a cement paste of fixed composition and fluidity; the latter is a reference system which provides ‘reference’ air entrainment values (‘A’ in FIG. 8).
2. […] The difference between ‘B’ and ‘A’ in FIG. 8 is the reduction in air entrainment due to the presence of the fly ash; this is illustrated as ‘C’ in FIG. 8.
In the present SA testing and evaluation protocol, the fly ash selected should remain the same for the entire set of additives tested, in order to provide reliable relative performance ranking. For the present series of test, the Fly Ash selected was the one identified as B1 in Table 1 below; the physico-chemical properties of this fly ash are reported in Table 1.
In testing for the relative performance of the sacrificial agent, the sacrificial agent dosage was chosen in the range 0-0.1 wt %, which corresponds to typical dosage values observed in paste, mortar and concrete tests reported in Tables 2, 3 and 4 and Tables 7 to 34.
3. Measurement of the air entrainment of the SA, by itself, in a cement-only paste at a dosage of 0.1 wt %; this is illustrated as ‘D’ in FIG. 8.
4. Measurement of the air entrained by DDBS in the FA-cement paste comprising 0.05% wt SA, under the same conditions as described in 2 above. The air entrainment value observed in this system, compared to that observed in the absence of the SA, yields the air recovery due to the SA, and is illustrated schematically as ‘E’ in FIG. 8.
5. Same as in 4 above, but with a higher SA concentration at 0.1 wt %; the air entrainment observed, again compared to the value observed in the absence of the SA, yields a second value of air recovery by the SA and is illustrated as ‘F’ in FIG. 8.
For the relative performance rating of the group of products chosen as potential SA and listed in Table 36, the following rating scheme (Tables A and B) was adopted (referring to FIG. 8 and quantities defined therein):
1: Chemical name of compound tested as potential sacrificial agent • Col. 2: Level of air entrainment by the candidate sacrificial agent, at a concentration of 0.1 wt %, in a Portland cement paste ([…]) • Col. […] 5: Sacrificial agent overall rating index (described below) • Col. 6: Hydrophilic-Lipophilic Balance (HLB) values of candidate sacrificial agent (source and significance of HLB data given below) • Col. 7: Logarithm of the Oil(octanol)/water partition coefficient (Kow) of the candidate sacrificial agents (source and significance of data given below).

[1] = Portland cement paste (PCA), […]
[2] = sacrificial agent overall rating index
[3] = B1 FA/cement paste, 0.0125 wt % DDBS, 0.05 wt % SA
[4] = B1 FA/cement paste, 0.0125 wt % DDBS, 0.10 wt % SA
[5] = sum of ratings of air entrainment recovery by 0.05% and 0.1% SA, DDBS 0.0125 wt %, 50:50 B1 fly ash:cement paste

| Compound | B1 + 0.0125% DDBS + 0.05% SA (air entrainment) (B1 FA/cement paste, […]) | B1 + 0.0125% DDBS + 0.1% SA (air entrainment) (B1 FA/cement paste, […]) | PCA + 0.1% SA (level of air entrainment by the candidate sacrificial agent) [1] | SA Rating (0-4) [2] | Overall performance rating (second protocol rating) | B1 + 0.0125% DDBS + 0.05% SA (air entrainment) [3] | B1 + 0.0125% DDBS + 0.1% SA (air entrainment) [4] | Overall performance rating (second protocol rating) [5] | other results |
| --- | --- | --- | --- | --- | --- | --- | --- | --- | --- |
| CCOCCOC(C)=O [E.G. mono-ethyl ether acetate] |  |  |  |  |  |  |  |  | B1 + 0.0125% DDBS + 0.05% SA (air entrainment): 4.7; B1 + 0.0125% DDBS + 0.1% SA (air entrainment): 4.7; PCA + 0.1% SA (level of air entrainment by the candidate sacrificial agent): 0.0; SA Rating (0-4): 2 |
| CCO [Ethanol] |  |  |  |  |  |  |  |  | B1 + 0.0125% DDBS + 0.05% SA (air entrainment): 3.1; B1 + 0.0125% DDBS + 0.1% SA (air entrainment): 3.3; PCA + 0.1% SA (level of air entrainment by the candidate sacrificial agent): 1.5; SA Rating (0-4): 0 |
| CCOC(C)=O [Ethyl acetate] | 3.2 | 3.3 | 0.8 | 0 |  |  |  |  |  |
| CCCC(=O)OCC [Ethylbutyrate] | 5.2 | 4.3 | 0.7 | 3 | 3 |  |  |  |  |
| CCCCCC(=O)OCC [Ethylcaproate] |  |  | 0.0 | 1 |  | 4.3 | 2.4 | 1 |  |
| CCOCCO [Ethylene Glycol Ethyl Ether] | 5.0 | 6.8 | 1.2 | 4 | 4 |  |  |  |  |
| CC(C)COCCO [Ethylene Glycol iso-Butyl Ether] |  |  | 1.7 | 4 |  | 8.8 | 9.5 | 4 |  |
| CCCCOCCO [Ethylene Glycol n-Butyl Ether] | 8.8 | 9.5 | 2.0 | 4 | 4 |  |  |  |  |
| CCCOCCO [Ethylene Glycol n-Propyl Ether] |  |  | 1.4 | 4 |  | 7.4 | 7.4 | 4 |  |
| OCCO [Ethylene Glycol] |  |  |  |  |  |  |  |  | B1 + 0.0125% DDBS + 0.05% SA (air entrainment): 2.4; B1 + 0.0125% DDBS + 0.1% SA (air entrainment): 2.8; PCA + 0.1% SA (level of air entrainment by the candidate sacrificial agent): 0.0; SA Rating (0-4): 0 |
| O=C1OCCO1 [Ethylene carbonate] | 2.5 | 1.9 | 0.0 | 0 |  |  |  |  |  |
| CCOCCOC(C)=O [Ethylene glycol mono-ethyl ether acetate] |  |  |  |  | 2 |  |  |  |  |
| CCOC(=O)CC [Ethylpropionate] |  |  | 0.9 | 3 |  | 4.9 | 4.6 | 3 |  |
| CCCCCC(=O)O [Hexanoic acid] | 5.1 | 4.9 | 2.4 | 4 | 4 |  |  |  |  |
| CCCCCCO [Hexanol] | 4.2 | 2.7 | 0.0 | 1 | 1 |  |  |  |  |
| O[C@H]1[C@H](O)[C@@H](O)[C@H](O)[C@@H](O)[C@H]1O [Inositol] | 2.1 | 2.1 | 0.1 | 0 |  |  |  |  |  |
| CO [Methanol] | 1.9 | 2.2 | 0.6 | 0 |  |  |  |  |  |
| CC(=O)CC(C)C [Methyl isobutylketone (MIBK)] |  |  | 0.3 | 2 |  | 5.6 | 3.9 |  |  |
| CC(=O)CC(C)C [Methyl isobutylketone] |  |  |  |  |  |  |  | 2 |  |
| CCCCCCCCCCCC(=O)OC [Methyllaurate] |  |  | 1.0 | 1 |  | 4.6 | 2.8 | 1 |  |
| CCCCCCCC(=O)OC [Methyloctanoate] |  |  | 0.0 | 2 |  | 4.8 | 2.2 | 2 |  |
| CCCCCCCC/C=C\CCCCCCCC(=O)OC [Methyloleate] |  |  | 0.5 | 2 |  | 5.1 | 2.7 | 2 |  |
| CCCCCCCCCCCCCCCC(=O)OC [Methylpalmitate] | 5.3 | 3.4 | 2.5 | 2 | 2 |  |  |  |  |
| CCC(=O)OC [Methylpropionate] | 2.7 | 3.5 | 0.2 | 0 |  |  |  |  |  |
| CCCCOC(=O)c1ccccc1C(=O)OCCCC [N-Butyl phthalate] |  |  |  | 0 |  | 2.2 | 2.1 |  | PCA + 0.1% SA (level of air entrainment by the candidate sacrificial agent) (Portland cement paste (PCA), 0.1 wt % SA, no DDBS): 0.0 |
| CC(C)(C)CO [Neopentanol] | 4.9 | 4.7 | 0.8 | 3 | 3 |  |  |  |  |
| CCCCCCCC/C=C\CCCCCCCC(=O)O [Oleic acid] | 2.2 | 1.9 | 2.1 | 0 |  |  |  |  |  |
| O=C(O)Cc1ccccc1 [Phenyl acetic acid] | 2.8 | 4.2 | 0.2 | 1 | 1 |  |  |  |  |
| OCCc1ccccc1 [Phenyl ethyl alcohol] | 4.5 | 5.5 | 0.7 | 3 | 3 |  |  |  |  |
| CC(O)COc1ccccc1 (centres unmarked) [Propylene Glycol Phenyl Ether] |  |  | 1.0 | 4 |  | 7.2 | 6.7 | 4 |  |
